Assay results as given in paper PMC11530689, “Anti colorectal cancer activity and in silico studies of novel pyridine nortopsentin analog as cyclin dependent kinase 6 inhibitor” (Scientific Reports, 2024).

Tests used:
Assay in all cases: NCI 60 cell line screen
Format in all cases: cell-based
BT-549 = conditions: BT-549, Breast Cancer; single concentration 10^−5 M
Method: (§1) The cytotoxic activity of nortopsintin analogs (4a-4j) was determined by the national cancer institute (NCI, Bethesda, Maryland, USA) against 60 different cancer cell lines at a single concentration of (10^-5 M). For the determination of IC50 value, we used MTT assay kit (Sigma) according to the manufacturer's protocol. HCT-116 cells were seeded into a 96-well plate at a concentration of 20,000 cells/well. After 24 h, the media was aspirated and replaced with serum-free media containing serial dilutions of the 4i compound. […] The percentage of cytotoxicity was calculated using the following equation: % Cytotoxicity = [1 - ([…])] × 100.

NCI-H226 = conditions: NCI-H226, Non-Small Cell Lung Cancer; single concentration 10^−5 M
Method: as §1

HOP-92 = conditions: HOP-92, Non-Small Cell Lung Cancer; single concentration 10^−5 M
Method: as §1

HCC-2998 = conditions: HCC-2998, Colon Cancer; single concentration 10^−5 M
Method: as §1

SK-MEL-28 = conditions: SK-MEL-28, Melanoma; single concentration 10^−5 M
Method: as §1

OVCAR-3 = conditions: OVCAR-3, Ovarian Cancer; single concentration 10^−5 M
Method: as §1

MDA-MB-231/ATCC = conditions: Breast Cancer, single concentration 10^−5 M
Method: as §1

PC-3 = conditions: PC-3, Prostate Cancer; single concentration 10^−5 M
Method: as §1

SF-295 = conditions: SF-295, CNS Cancer; single concentration 10^−5 M
Method: as §1

DU-145 = conditions: DU-145, Prostate Cancer; single concentration 10^−5 M
Method: as §1

LOX IMVI = conditions: Melanoma, single concentration 10^−5 M
Method: as §1

K-562 = conditions: K-562, Leukemia; single concentration 10^−5 M
Method: as §1

SK-MEL-2 = conditions: SK-MEL-2, Melanoma; single concentration 10^−5 M
Method: as §1

M14 = conditions: M14, Melanoma; single concentration 10^−5 M
Method: as §1

SK-MEL-5 = conditions: SK-MEL-5, Melanoma; single concentration 10^−5 M
Method: as §1

NCI/ADR-RES = conditions: Ovarian Cancer, single concentration 10^−5 M
Method: as §1

SW-620 = conditions: SW-620, Colon Cancer; single concentration 10^−5 M
Method: as §1

SK-OV-3 = conditions: SK-OV-3, Ovarian Cancer; single concentration 10^−5 M
Method: as §1

TK-10 = conditions: TK-10, Renal Cancer; single concentration 10^−5 M
Method: as §1

SF-539 = conditions: SF-539, CNS Cancer; single concentration 10^−5 M
Method: as §1

IGROV1 = conditions: IGROV1, Ovarian Cancer; single concentration 10^−5 M
Method: as §1

HL-60 (TB) = conditions: Leukemia, single concentration 10^−5 M
Method: as §1

MDA-MB-435 = conditions: MDA-MB-435, Melanoma; single concentration 10^−5 M
Method: as §1

CCRF-CEM = conditions: Leukemia, single concentration 10^−5 M
Method: as §1

MCF7 = conditions: MCF7, Breast Cancer; single concentration 10^−5 M
Method: as §1

A498 = conditions: A498, Renal Cancer; single concentration 10^−5 M
Method: as §1

NCI-H23 = conditions: NCI-H23, Non-Small Cell Lung Cancer; single concentration 10^−5 M
Method: as §1

SF-268 = conditions: SF-268, CNS Cancer; single concentration 10^−5 M
Method: as §1

OVCAR-5 = conditions: OVCAR-5, Ovarian Cancer; single concentration 10^−5 M
Method: as §1

NCI-H322M = conditions: Non-Small Cell Lung Cancer, single concentration 10^−5 M
Method: as §1

MALME-3M = conditions: Melanoma, single concentration 10^−5 M
Method: as §1

NCI-H522 = conditions: NCI-H522, Non-Small Cell Lung Cancer; single concentration 10^−5 M
Method: as §1

UO-31 = conditions: UO-31, Renal Cancer; single concentration 10^−5 M
Method: as §1

ACHN = conditions: Renal Cancer, single concentration 10^−5 M
Method: as §1

KM12 = conditions: KM12, Colon Cancer; single concentration 10^−5 M
Method: as §1

HS 578T = conditions: Breast Cancer, single concentration 10^−5 M
Method: as §1

HT29 = conditions: HT29, Colon Cancer; single concentration 10^−5 M
Method: as §1

## N#Cc1c(-c2ccc(Br)cc2)cc(-c2c[nH]c3ccccc23)nc1-c1c[nH]c2ccccc12 [4b]
BT-549
  Growth %: 103.55%
NCI-H226
  Growth %: 87.72%
HOP-92
  Growth %: 92.57%
HCC-2998
  Growth %: 114.86%
SK-MEL-28
  Growth %: 112.22%
OVCAR-3
  Growth %: 102.43%
MDA-MB-231/ATCC
  Growth %: 101.07%
PC-3
  Growth %: 93.93%
SF-295
  Growth %: 99.37%
DU-145
  Growth %: 107.37%
LOX IMVI
  Growth %: 99.48%
K-562
  Growth %: 96.82%
SK-MEL-2
  Growth %: 95.21%
M14
  Growth %: 102.89%
SK-MEL-5
  Growth %: 97.46%
NCI/ADR-RES
  Growth %: 99.61%
SW-620
  Growth %: 105.18%
SK-OV-3
  Growth %: 100.81%
TK-10
  Growth %: 146.78%
SF-539
  Growth %: 97.32%
IGROV1
  Growth %: 73.65%
HL-60 (TB)
  Growth %: 102.74%
MDA-MB-435
  Growth %: 108.30%
CCRF-CEM
  Growth %: 102.80%
MCF7
  Growth %: 85.19%
A498
  Growth %: 95.35%
NCI-H23
  Growth %: 93.93%
SF-268
  Growth %: 100.28%
OVCAR-5
  Growth %: 107.40%
NCI-H322M
  Growth %: 104.62%
MALME-3M
  Growth %: 103.25%
NCI-H522
  Growth %: 94.73%
UO-31
  Growth %: 71.05%
ACHN
  Growth %: 99.45%
KM12
  Growth %: 99.86%
HS 578T
  Growth %: 97.14%
HT29
  Growth %: 107.82%
